“And” between values parts separate entries of the source, which are not always exact repeats. Equal entries are not always repeated. “Also recorded” adds a separate entry of the source.

One data set concerns DENV2. Description: Lethal ADE mouse model of viremia. It is filed as in vivo. How it is done:
To model ADE, mice were injected IP (intraperitoneal) with […] of mouse monoclonal antibody against the (DENV) E protein (4G2 clone) one day prior to infection. (9) For treatment, celgosivir was injected IP once or twice daily for a total of 5 days. Mice were monitored every day till Day 12 post infection. The data were plotted as Kaplan-Meier curves using Prism 5.0 software.
To evaluate the effect of dose and dose schedule, four drug regimens were studied in the ADE viremia model: 10, 25 and 50 mg/kg BID and 100 mg/kg QD (once daily). For the BID schedule, survival increased with increasing dose with survival rates of 13%, 63% and 100% for 10, 25, and 50 mg/kg BID.
Even when treatment was delayed (FIG. 5A), celgosivir (50 mg/kg BID) exerted a protective effect. In this experiment, survival at Day 12 was 100%, 75%, and 50% when treatment was immediate, delayed 24 hr or delayed 48 hr after DENV2 infection, respectively, in the ADE model; by contrast, none (0%) of the sham-treated mice survived past day 5 (FIG. 5B). Viremia, as determined by plaque assay, in celgosivir-treated mice (50 mg/kg BID) was 8.3% of levels in sham-treated mice after only 1 day of dosing. By study day 3, viremia had increased in untreated mice by more than 7-fold.

Data set [1] can be described thus: Pharmacokinetics mouse studies. The note with it: in vivo. How it is done: The concentration profile of celgosivir and castanospermine in the mouse after a single IP dose of celgosivir at a dose of 50 mg/kg is illustrated in FIG. 6A. Serum concentrations were measured using a validated LC/MS/MS assay performed. Celgosivir was measurable in serum only up to 1 hr post-dosing.
The castanospermine concentration profile after dosing at 50 mg/kg BID for 5 days was calculated by nonparametric superposition (FIG. 6B). This dosing regimen of celgosivir protected 100% of mice in the lethal ADE dengue infection model.

For `CCCC(=O)O[C@H]1CN2CC[C@H](O)[C@@H]2[C@@H](O)[C@@H]1O.Cl` [Celgosivir, celgosivir], the “survival at Day 12” value in the data set with DENV2 (10 mg/kg BID for 5 days) was 12% and 13%; with DENV2 (25 mg/kg BID for 5 days), 62% and 63%; in the data set with DENV2 (50 mg/kg BID for 5 days, immediate treatment) it was 100%; with DENV2 (50 mg/kg BID, treatment delayed 24 hr), 75%; in the data set with DENV2 (50 mg/kg BID, treatment delayed 48 hr), 50%; with DENV2 (100 mg/kg once daily (QD)), 0%. The “viremia, of levels in sham-treated mice” value in the data set with DENV2 (50 mg/kg BID, after 1 day of dosing, plaque assay) stood at 8.3%; in the data set with DENV2 (50 mg/kg BID, study day 3, delayed 24 hr), 26%; in the data set on DENV2 (50 mg/kg BID, study day 3, delayed 48 hr), 69%; with DENV2 (50 mg/kg BID, study day 3, immediate treatment) it was 17%. For the same compound, in the data set with DENV2 (100 mg/kg once daily (QD)), the “survival (in words)” value was “no mice survived past day 6; also recorded: none surviving past Day 6”. Besides, in data set [1], the “absorption compared with castanospermine” value is “more rapidly and efficiently absorbed than castanospermine”. Moreover, the “species detected in plasma after celgosivir” value in data set [1] is “only castanospermine was detected in the plasma”. Moreover, in data set [1] (ip, 50 mg/kg), the “time celgosivir measurable in serum post-dosing” value is reported as “up to 1 hr”.

These data come from patent US10517854B2, “Dosing regiments of celgosivir for the treatment of dengue” (60 Degrees Pharmaceuticals, LLC, priority 2013, dated 2019).
